Test results published in paper PMC10065799, “High-throughput profiling of sequence recognition by tyrosine kinases and SH2 domains using bacterial peptide display” (eLife, 2023).
Square brackets hold non-standard residues; d marks the D form. * marks the point of attachment. FITC = O=C1OC2(c3ccc(O)cc3Oc3cc(O)ccc32)c2ccc(NC(=S)*)cc21; pY = N[C@@H](Cc1ccc(OP(=O)(O)O)cc1)C(=O)O; Ahx = NCCCCCC(=O)O

Assays:
EPHB2 kinase domain = experiment: pTyr-Var library bacterial peptide display kinase screen (enrichment scores); assay type: biochemical, human; settings: sheet EPHB2;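 note: log2 fold change in enrichment of variant over reference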
Fer kinase domain = experiment: as above; assay type: biochemical, mouse; settings: sheet "Fer"
EPHB1 kinase domain [1] = experiment: as above; assay type: biochemical, human; settings: for Screen: sheet EPHB1, effect of the variant peptide relative to its reference peptide in the pTyr-Var library screen (enrichment scores); for Screen (variant relative to reference peptide, measured in the pTyr-Var library screen): sheet "EPHB1", variant seq vs reference seq, bacterial peptide display enrichment
c-Src kinase domain [2] = target: T1, c-Src kinase domain (Homo sapiens, UniProt P12931); experiment: as above; assay type: biochemical; settings: sheet "Src"
c-Abl kinase domain [3] = target: T2, c-Abl kinase domain (Mus musculus, UniProt P00520); experiment: RP-HPLC assay to measure peptide phosphorylation kinetics; assay type: biochemical; settings: purified peptide substrate
T2 sequence (P00520 242-493 limits assumed): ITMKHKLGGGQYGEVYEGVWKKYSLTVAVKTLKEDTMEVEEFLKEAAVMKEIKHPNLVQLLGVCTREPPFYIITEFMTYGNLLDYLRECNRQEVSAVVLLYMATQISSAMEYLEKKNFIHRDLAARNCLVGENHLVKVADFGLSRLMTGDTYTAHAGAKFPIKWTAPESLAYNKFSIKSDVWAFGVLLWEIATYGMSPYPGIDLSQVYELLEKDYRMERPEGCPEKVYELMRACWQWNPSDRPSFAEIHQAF

c-Src kinase domain [4] = target: T1, c-Src kinase domain; experiment: as above; assay type: biochemical; settings: purified peptide substrate
EPHB1 kinase domain [5] = experiment: ADP-Quest continuous fluorimetric kinase assay (initial rates of consensus peptides); assay type: biochemical, human; settings: peptide 100 or 20 μM, kinase 10–50 nM; Figure 2C and supplement 2
Description: A fluorescence-based assay from Eurofins (ADP Quest) was used to measure the Michaelis-Menten kinetic parameters for phosphorylation of the consensus peptides by purified tyrosine kinase domains. In this assay, ADP production as a result of kinase activity is coupled to the production of resorufin, a fluorophore that emits signal at 590 nm. For all experiments, the assay reactions were set up as described in the provided assay kit protocol, in a 384 well plate format. The peptide solutions were serially diluted in 100 mM Tris, pH 8.0, and the kinases were diluted to 50 nM in buffer (10 mM HEPES, 100 mM NaCl, 1 mM TCEP, 5 mM MgCl2, 10% (v/v) glycerol). The final reaction mixtures contained 10 nM of kinase with 100 μM of ATP. […] Phosphorylation reaction progress was monitored by measuring fluorescence at excitation 530 nm and emission 590 nm every 2 min at 37 °C on a plate reader (BioTek Synergy Neo 2). The fluorescence units (RFU) were converted to μM ADP by comparison to a standard curve, and the initial rates were extracted from the linear regime of the reaction progress curves. Initial rates were also measured for samples containing each kinase but lacking a peptide substrate, to account for background ATP hydrolysis. This background rate was subtracted from the rates measured in the presence of peptide. […]

c-Abl kinase domain [6] = target: T2, c-Abl kinase domain; experiment: pTyr-Var library bacterial peptide display kinase screen (enrichment scores); assay type: biochemical; settings: sheet "Abl"; effect of variant peptide relative to its reference peptide in pTyr-Var library screen (enrichment)
[7] = target: mouse c-Abl kinase domain (residues 232-502) (mouse) (UniProt P00520)
Chain of mouse c-Abl kinase domain (residues 232-502) (mouse) (P00520 232-502): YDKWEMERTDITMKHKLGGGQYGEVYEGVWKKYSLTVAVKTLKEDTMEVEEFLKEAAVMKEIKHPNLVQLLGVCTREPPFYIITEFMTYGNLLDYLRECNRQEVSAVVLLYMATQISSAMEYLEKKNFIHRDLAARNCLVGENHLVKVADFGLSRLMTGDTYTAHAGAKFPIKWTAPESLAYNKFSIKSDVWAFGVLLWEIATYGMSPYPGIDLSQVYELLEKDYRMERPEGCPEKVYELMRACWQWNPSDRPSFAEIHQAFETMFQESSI

[8] = target: human c-Src SH2 domain (residues 143-250) (human, UniProt P12931-1 143-250, biotin on the Avi tag (co-expression with the biotin ligase BirA)); experiment: fluorescence polarisation; direct titration: varying concentrations of c-Src SH2 with 30 nM fluorescent peptide, 15 min; 60 mM HEPES pH 7.2, 75 mM KCl, 75 mM NaCl, 1 mM EDTA, 0.05% Tween 20; 25 °C; quadratic binding equation; settings: both partners purified
[9] = effect of variant peptide relative to its reference peptide in the pTyr-Var library screen (enrichment scores)
[10] = value of the variant peptide against its reference peptide in the pTyr-Var library screen with Fer
[11] = effect of the variant peptide relative to its reference peptide in the pTyr-Var library screen
[12] = variant peptide versus its reference peptide in the pTyr-Var library screen
[13] = effect of the variant relative to its reference peptide in the pTyr-Var library screen
[14] = variant peptide relative to its reference peptide, pTyr-Var library screen enrichment

Row | Molecule | Screen (EPHB2 kinase domain; [9]) | Screen (Fer kinase domain; [10]) | Screen (EPHB1 kinase domain [1]) | Screen (c-Src kinase domain [2]; [11]) | Screen (c-Src kinase domain [2]; [12]) | other results
1 | SNTFLYQLVFD [EXO1_Y284_N279S] | -0.053 | -0.008577 | 0.05167 | -0.03965 | – | –
2 | Ac-IGEGTYGTVFK-NH2 [CDK5-Y15] | – | – | – | – | – | Phosphorylation Rate (c-Abl kinase domain [3]): 0.085 s⁻¹; Phosphorylation Rate (c-Src kinase domain [4]): 2.587 s⁻¹
3 | TTSQLYDAMPI [PDPK1_Y9_V12M] | -1.368 | -0.6658 | -0.6854 | – | -0.9144 | –
4 | LHNLFYQLEAE [PKP2_Y616_S615F] | 1.672 | 1.632 | – | – | 4.082 | –
5 | HMEAVYIDIAD [PITPNA_Y140_V136M] | 1.927 | 1.696 | 1.841 | – | 0.9488 | –
6 | FNSLLYQVPTS [CALCOCO2_Y358_P357L] | 5.149 | 3.519 | 4.751 | 2.72 | – | –
7 | ITSLLYHVVGW [GBA_Y412_N409S] | -0.2083 | 0.08882 | -0.08421 | -0.3669 | – | –
8 | ADCRFYTFPQM [GAMT_Y223_A224T_YF] | -2.189 | -1.641 | -1.572 | – | – | –
9 | TQNAVYSAANF [DDX5_Y535_G533A_YF] | 1.01 | 0.4164 | 1.023 | 0.6379 | – | –
10 | Ac-IGEGTYGQVFK-NH2 [CDK13_Y716_YF] | – | – | – | – | – | Phosphorylation Rate (c-Src kinase domain [4]): 3.100 s⁻¹
11 | Ac-IGEGTYRQVFK-NH2 [CDK13_Y716_G717R_YF, pTyr-Var library variant phosphosite peptide] | – | – | – | -4.535 | – | Phosphorylation Rate (c-Src kinase domain [4]): 0.195 s⁻¹
12 | AAAAVYTFLPD [MYORG_Y36_M35V] | 0.71 | 0.8509 | 0.3532 | – | 0.6423 | –
13 | ITNLLYHVVGG [GBA_Y412_W417G] | -0.0356 | -1.01 | 0.07416 | -0.2777 | – | –
14 | Ac-GPPEPNYEVIPPKKKG-NH2 [EPHB1 Consensus, EPHB1 consensus substrate peptide from X5-Y-X5 screen] | – | – | – | – | – | phosphorylation of consensus peptide by EPHB1 (initial rate relative to cognate consensus) (EPHB1 kinase domain [5]): did not prefer
15 | Ac-GNLLIYTELGK-NH2 [HGD_Y166_F169L, pTyr-Var library variant peptide, non-canonical c-Abl substrate] | 1.177 | – | 1.156 | -0.3242 | – | Phosphorylation Rate (c-Abl kinase domain [3]): 0.238 s⁻¹
16 | DNEALYDTCFR [TUBB2B_Y208_I210T] | – | – | – | – | -0.1626 | Screen (EPHB2 kinase domain; [13]): -0.7919; Screen (Fer kinase domain; [14]): -0.2841; Screen (variant relative to reference peptide, measured in the pTyr-Var library screen) (EPHB1 kinase domain [1]): -0.7019
17 | TLSGIYQFNIA [FOXL2_Y81_I84N_YF] | -4.083 | -1.015 | -4.223 | -0.3308 | – | –
18 | LEDPMYDIIRD [RP9_Y142_H137L] | 0.7516 | – | 0.4802 | – | 0.5395 | Screen (Fer kinase domain; [14]): 0.5422
19 | RRIHSYRGFLW [VHL_Y112_H115Y_YF] | – | – | – | – | -2.75 | Screen (EPHB2 kinase domain; [13]): -0.9029; Screen (c-Abl kinase domain [6]): -4.49; Screen (variant relative to reference peptide, measured in the pTyr-Var library screen) (EPHB1 kinase domain [1]): -2.336
20 | KMKGDYFCFLA [YWHAG_Y130_R132C_YF] | – | – | – | – | 0.4816 | Screen (EPHB2 kinase domain; [13]): 1.601; Screen (variant relative to reference peptide, measured in the pTyr-Var library screen) (EPHB1 kinase domain [1]): 1.698
21 | LDAFIYDAALL [GRIN2A_Y730_V734L] | -0.3341 | -0.3557 | -0.2525 | 0.1286 | – | –
22 | ITNHIYTWVDP [DFNB31_Y234_V229I] | -0.0087 | -0.03067 | 0.06659 | 0.3882 | – | –
23 | CPSLLYSPVSS [CAMKK2_Y128_P127L] | 2.723 | 2.071 | 3.226 | 2.179 | – | –
24 | DNEALYDICFC [TUBB3_Y208_R213C] | – | – | – | – | 0.09389 | Screen (EPHB2 kinase domain; [13]): 0.1536; Screen (Fer kinase domain; [14]): 0.2993; Screen (variant relative to reference peptide, measured in the pTyr-Var library screen) (EPHB1 kinase domain [1]): -0.1227
25 | DPLLTYWFPPK [LMNA_Y481_R482W] | 5.36 | – | 4.875 | 3.284 | – | –
26 | PLDGEYFTPQI [TP53_Y327_L330P] | – | – | – | – | -3.182 | Screen (EPHB2 kinase domain; [13]): 0.1464; Screen (variant relative to reference peptide, measured in the pTyr-Var library screen) (EPHB1 kinase domain [1]): -0.3708
27 | Ac-GPDEPIYAVPPIKKKG-NH2 [Abl Consensus peptide Ac-…-NH2] | – | – | – | – | – | KM (μM) of phosphorylation, Michaelis-Menten analysis, ADP-Quest assay [7]: 6 µM
28 | {FITC-Ahx}-GDG[pY]EEISPLLL-NH2 (SMILES CC[C@H](C)[C@H](NC(=O)[C@H](CCC(=O)O)NC(=O)[C@H](CCC(=O)O)NC(=O)[C@H](Cc1ccc(OP(=O)(O)O)cc1)NC(=O)CNC(=O)[C@H](CC(=O)O)NC(=O)CNC(=O)CCCCCNC(=S)Nc1ccc2c(c1)C(=O)OC21c2ccc(O)cc2Oc2cc(O)ccc21)C(=O)N[C@@H](CO)C(=O)N1CCC[C@H]1C(=O)N[C@@H](CC(C)C)C(=O)N[C@@H](CC(C)C)C(=O)N[C@@H](CC(C)C)C(N)=O, also called fluorescent peptide; source: gift from the Amacher lab (Western Washington University)) [fluorescently-labeled c-Src-SH2 consensus peptide FITC-Ahx-GDG(pY)EEISPLLL-NH2] | – | – | – | – | – | Kd [8]: 160 nM
